Test results from US11453703B2, “Heterotandem bicyclic peptide complexes” (BicycleTX Limited, priority 2018, dated 2022).

Assays:
[1] = test system: human PBMC co-cultured with 4T1-D02 (Nectin4+); experiment: Human PBMC-4T1 co-culture (cytokine release) assay; format: cell-based; settings: anti-CD3 stimulated PBMC, 48 hours
Description: Mouse mammary gland tumor cell line 4T1-1 (4T1-Parental) and murine Nectin-4 overexpressing 4T1 (4T1-D02) were cultured in RPMI1640 supplemented with 10% heat-inactivated Fetal Bovine Serum, 100 I.U/ml Penicillin and 100 I.U/Streptomycin, 20 mM HEPES, 1× Non-Essential Amino Acids, and 2 mM L-Glutamine (RPMI working medium). Frozen PBMCs from healthy human donors were thawed and washed one time in room temperature PBS, and then resuspended in RPMI working medium. For tumor cell and PBMC co-culture, 10000 PBMCs and 2000 tumor cells (5:1) were mixed and plated in each well of a 384 well plate. For stimulating human PBMCs, 125 ng/ml of soluble anti-CD3 mAb (clone OKT3) was added to the culture on day 0. Test, control compounds or vehicle controls were added to respective wells and brought the final volume per well to 100u1. Plates were incubated in a 37° C. cell culture incubator with 5% CO2 for up to three days. Supernatants were collected 48 hours after stimulation, and human IL-2 and IFFγ were detected using HTRF assays. Raw data were analyzed using Excel or Prism software to generate standard curves to interpolate protein concentrations. Data represents one study with three different donor PBMC tested in experimental duplicates.

[2] = Pharmacokinetics of CD137 bispecifics in SD rats; format: in vivo; settings: male, Sprague-Dawley (SD), SD Rat, 2 mg/kg IV, plasma
Description: Male SD Rats were dosed with 2 mg/kg of each Bicycle multimer formulated in 25 mM Histidine HCl, 10% sucrose pH 7. Serial bleeding (about 80 μL blood/time point) was performed via submadibular or saphenous vein at each time point. All blood samples were immediately transferred into prechilled microcentrifuge tubes containing 2 μL K2-EDTA (0.5M) as anti-coagulant and placed on wet ice. Blood samples were immediately processed for plasma by centrifugation at approximately 4° C., 3000 g. The precipitant including internal standard was immediately added into the plasma, mixed well and centrifuged at 12,000 rpm, 4° C. for 10 minutes. The supernatant was transferred into pre-labeled polypropylene microcentrifuge tubes, and then quick-frozen over dry ice. The samples were stored at […] or below as needed until analysis. 7.5 μL of the supernatant samples were directly injected for LC-MS/MS analysis using an Orbitrap Q Exactive in positive ion mode to determine the concentrations of Bicycle multimer. Plasma concentration versus time data were analyzed by non-compartmental approaches using the Phoenix WinNonlin 6.3 software program. C0, CI, Vdss, T½, AUC(0-last), AUC(0-inf), MRT(0-last), MRT(0-inf) and graphs of plasma concentration versus time profile were reported.

[3] = molecular target: T1, CD137 (Homo sapiens, UniProt Q07011); experiment: CD137 reporter assay, co-culture with Nectin-4 tumour cells; format: cell-based; design: host or cells: Jurkat reporter cells; settings: tumour target Nectin4, co-culture with H1376, 6 h;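 note: jurkat reporter cells co-cultured with tumour cells and test article for 6 h, luminescence signal relative to Jurkat plus tumour cells lacking test article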
[4] = molecular target: T1, CD137; experiment: CD137 Biacore (SPR) binding assay; design: purchased R&D systems; settings: biotinylated human CD137, 25° C.
Procedure, shortened: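 Biotinylated human CD137 captured (270-1500 RU) on streptavidin-coupled dextran chip; peptides up to 500 nM in PBS/0.05% Tween 20, 0.5% DMSO, at 25°C, 60 s association, 900 s dissociation. Double-referenced data fitted to 1:1 binding model, with mass transport where appropriate.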

[5] = molecular target: T1, CD137; experiment: CD137 reporter assay, co-culture with EphA2 tumour cells; format: cell-based; design: host or cells: Jurkat reporter cells; settings: tumour target EphA2, co-culture with SC-OV-3, 6 h
Procedure, shortened: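 Jurkat CD137 reporter cells co-cultured with tumour cells and serially diluted test articles in RPMI-1640 + 1% FBS, 6 h at 37 °C, 5% CO2. Luminescence read after Bio-Glo; fold change over cells-only background fitted log(agonist) vs response for EC50 (nM) and maximal fold induction.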

[6] = molecular target: human EphA2 protein (Homo sapiens, UniProt P29317); experiment: EphA2 Biacore (SPR) binding assay; settings: biotinylated human EphA2, 25° C.
Description: Biacore experiments were performed to determine ka (M^−1s^−1), kd (s^−1), KD (nM) values of heterotandem peptides binding to human EphA2 protein.
EphA2 were biotinylated with EZ-Link™ Sulfo-NHS-LC-Biotin for 1 hour in 4 mM sodium acetate, 100 mM NaCl, pH 5.4 with a 3× molar excess of biotin over protein. The degree of labelling was determined using a Fluorescence Biotin Quantification Kit (Thermo) after dialysis of the reaction mixture into PBS. For analysis of peptide binding, a Biacore T200 instrument was used with a XanTec CMD500D chip. Streptavidin was immobilized on the chip using standard amine-coupling chemistry at 25° C. with HBS-N (10 mM HEPES, 0.15 M NaCl, pH 7.4) as the running buffer. Briefly, the carboxymethyl dextran surface was activated with a 7 min injection of a 1:1 ratio of 0.4 M 1-ethyl-3-(3-dimethylaminopropyl) carbodiimide hydrochloride (EDC)/0.1 M N-hydroxy succinimide (NHS) at a flow rate of 10 it/min. For capture of streptavidin, the protein was diluted to 0.2 mg/ml in 10 mM sodium acetate (pH 4.5) and captured by injecting 120 μl onto the activated chip surface. Residual activated groups were blocked with a 7 min injection of 1 M ethanolamine (pH 8.5):HBS-N (1:1). Buffer was changed to PBS/0.05% Tween 20 and biotinylated EphA2 was captured to a level of 500-1500 RU using a dilution of protein to 0.2 μM in buffer. A dilution series of the peptides was prepared in this buffer with a final DMSO concentration of 0.5% with a top peptide concentration was 50 or 100 nM and 6 further 2-fold dilutions. The SPR analysis was run at 25° C. at a flow rate of 90 μl/min with 60 seconds association and 900-1200 seconds dissociation. Data were corrected for DMSO excluded volume effects. All data were double-referenced for blank injections and reference surface using standard processing procedures and data processing and kinetic fitting were performed using Scrubber software, version 2.0c (BioLogic Software). Data were fitted using simple 1:1 binding model allowing for mass transport effects where appropriate.

T1 sequence (Q07011 24-255): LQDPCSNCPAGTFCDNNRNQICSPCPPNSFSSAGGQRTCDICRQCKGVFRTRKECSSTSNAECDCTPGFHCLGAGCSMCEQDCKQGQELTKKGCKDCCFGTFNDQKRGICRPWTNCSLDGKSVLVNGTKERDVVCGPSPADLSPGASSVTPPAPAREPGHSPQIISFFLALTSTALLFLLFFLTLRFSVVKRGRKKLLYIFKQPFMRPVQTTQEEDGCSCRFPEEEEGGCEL
Sequence of human EphA2 protein (P29317 24-976): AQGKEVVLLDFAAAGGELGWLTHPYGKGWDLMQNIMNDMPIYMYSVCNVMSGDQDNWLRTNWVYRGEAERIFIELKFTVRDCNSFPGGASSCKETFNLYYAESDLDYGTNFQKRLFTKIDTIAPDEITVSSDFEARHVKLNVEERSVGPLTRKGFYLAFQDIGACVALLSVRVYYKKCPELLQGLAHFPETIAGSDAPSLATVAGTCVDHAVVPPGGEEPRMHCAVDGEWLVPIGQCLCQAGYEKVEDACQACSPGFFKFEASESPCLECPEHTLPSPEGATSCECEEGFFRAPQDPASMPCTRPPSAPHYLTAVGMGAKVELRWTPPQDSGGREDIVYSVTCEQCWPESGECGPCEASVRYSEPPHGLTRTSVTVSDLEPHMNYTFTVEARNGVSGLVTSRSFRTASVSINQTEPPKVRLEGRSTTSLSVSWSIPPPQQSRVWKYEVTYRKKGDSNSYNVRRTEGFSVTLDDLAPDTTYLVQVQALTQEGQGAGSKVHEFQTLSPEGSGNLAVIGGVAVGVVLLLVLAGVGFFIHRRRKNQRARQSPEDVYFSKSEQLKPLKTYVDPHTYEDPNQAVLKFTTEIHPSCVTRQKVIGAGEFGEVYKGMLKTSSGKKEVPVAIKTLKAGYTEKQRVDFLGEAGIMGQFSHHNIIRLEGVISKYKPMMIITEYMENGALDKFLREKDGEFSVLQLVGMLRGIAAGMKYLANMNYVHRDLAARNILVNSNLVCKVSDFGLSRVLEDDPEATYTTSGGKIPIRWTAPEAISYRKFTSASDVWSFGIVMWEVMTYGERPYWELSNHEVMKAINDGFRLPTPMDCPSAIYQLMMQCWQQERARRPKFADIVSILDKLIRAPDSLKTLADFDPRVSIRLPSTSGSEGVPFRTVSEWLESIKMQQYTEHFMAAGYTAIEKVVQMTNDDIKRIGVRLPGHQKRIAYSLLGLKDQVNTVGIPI

CCCC[C@@H]1NC(=O)[C@H](Cc2ccc(O)cc2)NC(=O)[C@@H]2CCCN2C(=O)[C@H](CC(=O)O)NC(=O)[C@H](C)NC(=O)[C@H](Cc2ccccc2)NC(=O)[C@@H]2CSCCC(=O)N3CN(CN(C3)C(=O)CCSC[C@@H](C(=O)N[C@@H](CNC(=O)CCOCCOCCOCCOCCOCCOCCOCCOCCOCCOCCOCCOCCn3cc(CCC(=O)NCCC(=O)N(C)CC(=O)N(C)CC(=O)N(C)CC(=O)N(C)CC(=O)N(C)CC(=O)N(C)CC(=O)N(C)CC(=O)N(C)CC(=O)N(C)CC(=O)N(C)CC(=O)N[C@H]4CSCCC(=O)N5CN6CN(C5)C(=O)CCSC[C@H](NC(=O)[C@@H](CC(=O)O)NC(=O)[C@H](Cc5cccc7ccccc57)NC(=O)[C@@H]5CCCN5C4=O)C(=O)N[C@@H](CCSC)C(=O)N[C@@H](CCCCNC(=N)N)C(=O)N[C@@H](CC(=O)O)C(=O)N[C@@H](Cc4c[nH]c5ccccc45)C(=O)N[C@@H](CO)C(=O)N[C@@H]([C@@H](C)O)C(=O)N4CCC[C@H]4C(=O)N4C[C@H](O)C[C@H]4C(=O)N[C@@H](Cc4c[nH]c5ccccc45)C(=O)N[C@H](C(N)=O)CSCCC6=O)nn3)C(N)=O)NC1=O)C(=O)CCSC[C@H](NC(C)=O)C(=O)N[C@@H](CC(C)(C)C)C(=O)N1CCC[C@H]1C(=O)N[C@@H](CCC(=O)O)C(=O)N[C@H](C)C(=O)N1CCC[C@H]1C(=O)N[C@@H](Cc1ccc(O)cc1)C(=O)N2 [BCY10000]
EC50 ([1]; IFN-γ secretion): 0.21 nM | max IFN-y [1]: 19642 pg/mL | clearance ([2]; read-out: Clp): 16.1 mL/min/kg | half-life ([2]; read-out: T½ (converted)): 21.4 min | Vd ([2]; read-out: Vdss): 0.395 L/kg | Fold Induction over Background [3]: 61 fold

CCCC[C@@H]1NC(=O)[C@H](Cc2ccc(O)cc2)NC(=O)[C@@H]2CCCN2C(=O)[C@H](CC(=O)O)NC(=O)[C@H](C)NC(=O)[C@H](Cc2ccccc2)NC(=O)[C@@H]2CSCCC(=O)N3CN(CN(C3)C(=O)CCSC[C@@H](C(=O)N[C@@H](CNC(=O)CCc3cn(CCOCCOCCOCCOCCOCCOCCOCCOCCOCCOCCOCCOCCOCCOCCOCCOCCOCCOCCOCCOCCOCCOCCOCCNC(=O)NCCC(=O)N(C)CC(=O)N(C)CC(=O)N(C)CC(=O)N(C)CC(=O)N(C)CC(=O)N(C)CC(=O)N(C)CC(=O)N(C)CC(=O)N(C)CC(=O)N(C)CC(=O)N[C@@H](C)C(=O)N[C@@H](CCCCNC(=N)N)C(=O)N[C@@H](CC(=O)O)C(=O)N[C@H]4CSCCC(=O)N5CN6CN(C5)C(=O)CCSC[C@H](NC(=O)[C@H](CC(C)C)NC(=O)[C@@H]5CCCN5C(=O)[C@H](CC(N)=O)NC(=O)[C@H](C(C)C)NC(=O)[C@H](CC(C)C)NC(=O)[C@@H]5C[C@@H](O)CN5C4=O)C(=O)N[C@@H](CC(C)C)C(=O)N[C@@H](Cc4c[nH]cn4)C(=O)N4CCC[C@H]4C(=O)N[C@H](CC(=O)O)C(=O)N[C@@H](Cc4c[nH]c5ccccc45)C(=O)N[C@@H](CCCCNC(=N)N)C(=O)N[C@H](C(N)=O)CSCCC6=O)nn3)C(N)=O)NC1=O)C(=O)CCSC[C@H](NC(=O)[C@H](C)NC(C)=O)C(=O)N[C@@H]([C@@H](C)CC)C(=O)N[C@@H](CCC(=O)O)C(=O)N[C@@H](CCC(=O)O)C(=O)NCC(=O)N[C@@H](CCC(N)=O)C(=O)N[C@@H](Cc1ccc(O)cc1)C(=O)N2 [BCY9648]
Kd [4]: 202 nM | EC50 [5]: 9.3 nM | Fold Induction over Background [5]: 20 fold | Kd [6]: 1.75 nM

CCCC[C@@H]1NC(=O)[C@H](Cc2ccc(O)cc2)NC(=O)[C@@H]2CCCN2C(=O)[C@H](CC(=O)O)NC(=O)[C@H](C)NC(=O)[C@H](Cc2ccccc2)NC(=O)[C@@H]2CSCCC(=O)N3CN(CN(C3)C(=O)CCSC[C@@H](C(=O)N[C@@H](CNC(=O)CCc3cn(CCCNC(=O)CN(C)C(=O)CN(C)C(=O)CN(C)C(=O)CN(C)C(=O)CN(C)C(=O)CN(C)C(=O)CN(C)C(=O)CN(C)C(=O)CN(C)C(=O)CN(C)C(=O)CN(C)C(=O)CN(C)C(=O)CN(C)C(=O)CN(C)C(=O)CN(C)C(=O)COCCOCCOCCOCCOCCNC(=O)NCCC(=O)N(C)CC(=O)N(C)CC(=O)N(C)CC(=O)N(C)CC(=O)N(C)CC(=O)N(C)CC(=O)N(C)CC(=O)N(C)CC(=O)N(C)CC(=O)N(C)CC(=O)N[C@@H](C)C(=O)N[C@@H](CCCCNC(=N)N)C(=O)N[C@@H](CC(=O)O)C(=O)N[C@H]4CSCCC(=O)N5CN6CN(C5)C(=O)CCSC[C@H](NC(=O)[C@H](CC(C)C)NC(=O)[C@@H]5CCCN5C(=O)[C@H](CC(N)=O)NC(=O)[C@H](C(C)C)NC(=O)[C@H](CC(C)C)NC(=O)[C@@H]5C[C@@H](O)CN5C4=O)C(=O)N[C@@H](CC(C)C)C(=O)N[C@@H](Cc4c[nH]cn4)C(=O)N4CCC[C@H]4C(=O)N[C@H](CC(=O)O)C(=O)N[C@@H](Cc4c[nH]c5ccccc45)C(=O)N[C@@H](CCCCNC(=N)N)C(=O)N[C@H](C(N)=O)CSCCC6=O)nn3)C(N)=O)NC1=O)C(=O)CCSC[C@H](NC(=O)[C@H](C)NC(C)=O)C(=O)N[C@@H]([C@@H](C)CC)C(=O)N[C@@H](CCC(=O)O)C(=O)N[C@@H](CCC(=O)O)C(=O)NCC(=O)N[C@@H](CCC(N)=O)C(=O)N[C@@H](Cc1ccc(O)cc1)C(=O)N2 [BCY9657]
Kd [4]: 256 nM | EC50 [5]: 9 nM | Fold Induction over Background [5]: 26 fold | Kd [6]: 1.1 nM
